In patent US7871644B2, “Pharmaceutical composition for oral use with improved absorption” (Astellas Pharma Inc., priority 2000, dated 2011):

Key:
[1] = Number of insoluble particulate matter after adding calcium chloride to bisphosphonate solution; details: calcium chloride solution added, 0-60 minutes
Experimental: Another 2 ml distilled water were added to this liquid.
Then 2 ml of an aqueous 10 mg/ml calcium chloride.2H2O solution were added to this liquid.

[2] = Oral administration of compound B tablets to beagles 30 minutes after feed; format: in vivo; details: fed beagles
[3] = Number of insoluble particulate matter after adding magnesium chloride to compound B solution; details: compound B solution with sodium bicarbonate, magnesium chloride solution added, 0-60 minutes, FIG. 7
Experimental: Another 2 ml distilled water were added to this solution and the number of insoluble particulate matter (2 μm or larger) was determined 0, 15, 30, and 60 minutes after addition using an insoluble particulate matter gauge (HIAC/ROYCO®, Pacific Scientific).
Two milliliters aqueous 10 mg/ml magnesium chloride.6H2O solution were added to this prepared liquid, and the number of insoluble particulate matter (2 μm or larger) was determined 0, 15, 30 and 60 minutes after addition by the same method as in Experiment 11.
Two milliliters aqueous 10 mg/ml magnesium chloride.6H2O were added to this prepared liquid, and the number of insoluble particulate matter (2 μm or larger) was determined 0, 15, 30 and 60 minutes after addition by the same method as in Experiment 11.

[4] = Int. J. Pharm., 1993; cited from earlier work
[5] = J. Pharm. Sci, 86, 1997; cited from earlier work

## CC(O)(P(=O)(O)O)P(=O)(O)O [compound D, (1-hydroxyethylidene)-1,1-bisphosphonate]
[1]; compound D solution with sodium bicarbonate, FIG. 5
  number of insoluble particulate matter (2 μm or larger): increase in the number of insoluble particulate matter

## O=P(O)(O)C(O)(Cc1cnc2ccccn12)P(=O)(O)O [compound B]
[2]
  Cmax and AUC when taken with food: low Cmax and AUC
[3]
  number of insoluble particulate matter (2 μm or larger): increase in the number of insoluble particulate matter
[1]; compound B solution, FIG. 2
  number of insoluble particulate matter (10 μm or larger): increase in the number of insoluble particulate matter

## O=P(O)(O)C(NC1CCCCCC1)P(=O)(O)O [compound C, [(cycloheptylamino)-methylene]bis-phosphonate]
[1]; compound C solution with sodium bicarbonate, FIG. 4
  number of insoluble particulate matter (10 μm or larger): increase in the number of insoluble particulate matter

## C[C@]12CC[C@H]3[C@@H](CCC4=CC(=O)CC[C@@]43C)[C@@H]1CC[C@@H]2O [testosterone]
[4]
  share of the barrier to absorption accounted for by the mucous layer: 78%
[5]
  reduction of the diffusion coefficient by the mucous layer: 50%
